Laboratory results as given in patent US8853424B2 (Japan Science and Technology Agency, priority 2008, dated 2014).
Read-outs that look alike come from different tables or passages of the source.

Assays:
[1] = tested on: Truncated N-terminal huntington 150 Q-EGFP-Neuron 2a cells; assay: Measurement of x-Fold (polyglutamine aggregation inhibitory activity); assay type: cell-based
Description: In the present invention, the polyglutamine aggregation inhibitory activity (x-Fold) can be measured, for example, by the method described in the Example.
The number of the aggregated cells, and the total number of cells were counted by Array Scan V T1 (manufactured by Cellomics, Pittuburg, USA), and the ratio of the aggregated cells to the total number of cells was determined (x-Fold). […]

transglutaminase (TGase) = assay: Measurement of TG (TGase inhibitory activity, monodansyl cadaverine / N,N-dimethylcasein fluorescence, FDSS 3000); assay type: biochemical
Procedure, shortened: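 Compound (1 μL of 10 mM stock) added to 0.1 mL reaction: 100 mM HEPES-NaOH pH 7.5, 1 mM CaCl2, 20 μM monodansyl cadaverine, 0.05 mg/mL N,N-dimethylcasein, 5 μg/mL TGase. Rate of fluorescence change at 340 nm measured; DMSO control set to 100; TG50 is the concentration halving activity.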

[2] = tested on: SOC (store operated calcium channel); assay: Measurement of SOC IC50 (thapsigargin store depletion, calcium re-addition, CHO cells); assay type: cell-based; conditions: read-out: SOC IC50
Description: The SOC (store operated calcium channel)-suppressive action can be measured by the method described in the Example and using, for example, FDSS 3000.
CHO cell culture medium was replaced with a BSS solution which is an extracellular fluidfree of calcium, the compound of the present invention was added 1 min later, and 1 μM thapsigargin was allowed to act thereon 2 min later to deplete intracellular calcium store. […]

[3] = polyglutamine aggregation inhibitory activity, Table 1
[4] = ratio of aggregated cells to total number of cells, compound 20 μM, 20 hr, almost 1 without compound, smaller = stronger inhibition
[5] = TGase activity with compound (10 mM, 1 μL in 0.1 ml enzyme reaction solution), DMSO control taken as 100
[6] = TGase inhibitory activity value, Table 1
[7] = Cricetulus griseus, CHO, CHO cells, 1 μM thapsigargin, 2 mM calcium chloride
[8] = Cricetulus griseus, CHO, Table 1
[9] = CHO cells, 1 μM thapsigargin, 2 mM calcium chloride
[10] = polyglutamine aggregation, Truncated N-terminal huntington 150 Q-EGFP-Neuron 2a cells
[11] = TGase inhibitory activity measurement, unit not given

Row | TGase activity remaining (% of DMSO control = 100) (transglutaminase (TGase); [5]) | TGase activity remaining (% of DMSO control = 100) (transglutaminase (TGase); [6]) | IC50 [2, 7] [nM] | IC50 [2, 8] [nM] | IC50 [2, 9] [nM] | TGase activity remaining (% of DMSO control = 100) (transglutaminase (TGase); TGase inhibitory activity value, Table 1, listed as 7085) | TGase activity remaining (% of DMSO control = 100) (transglutaminase (TGase); TGase inhibitory activity measurement, unit not given, listed as 2023) | IC50 ([2]; Cricetulus griseus, CHO, CHO cells, thapsigargin store depletion) [nM] | TGase activity remaining (% of DMSO control = 100) (transglutaminase (TGase); [11]) | IC50 ([2]; Table 1) [nM] | Compound | x-Fold [1, 3] | x-Fold [1, 4] | x-Fold ([1]; polyglutamine aggregation inhibitory activity, Table 1, listed as 7085) | x-Fold ([1]; polyglutamine aggregation, Truncated N-terminal huntington 150 Q-EGFP-Neuron 2a cells, listed as 2023) | x-Fold [1, 10]
1 | 16 | 16 | 2000 | 2000 | – | – | – | – | – | – | NCCOB(c1ccccc1)c1ccc(COc2ccc(B(OCCN)c3ccccc3)cc2)cc1 [Example 371, (4-phenylaminoethoxyborylphenyl)(4′-phenylaminoethoxyborylbenzyl)ether] | 0.85 | 0.85 | – | – | –
2 | 70 | 70 | > 20000 | > 20000 | – | – | – | – | – | – | CC(C)(C)c1cc(B(O)c2ccccc2)c2c(c1)C(C)(C)c1cc(C(C)(C)C)cc(B(O)c3ccccc3)c1O2 [Example 377, 4,5-di(phenylhydrixyboryl)-2,7-di-tert-butyl-9,9-dimethylxanthrene] | 0.75 | 0.75 | – | – | –
3 | 10 | 10 | – | – | 500 | – | – | – | – | – | CNCCOB(c1ccccc1)c1ccc(Oc2ccc(B(OCCNC)c3ccccc3)cc2)cc1 [Example 386, bis(4,4′-(phenyl-N-methylaminoethoxyboryl)phenyl)ether] | 0.98 | 0.98 | – | – | –
4 | 41 | – | – | – | 500 | 41 | – | – | – | – | NC(=O)CCC(N)C(=O)OB(c1ccccc1)c1ccc(Oc2ccc(B(OC(=O)C(N)CCC(N)=O)c3ccccc3)cc2)cc1 (stereo not shown) [Example 388, bis(4,4′-(phenyl-glutamineboryl)phenyl)ether] | – | 0.67 | 0.67 | – | –
5 | 15 | 15 | 500 | 500 | – | – | – | – | – | – | CNCCOB(c1ccccc1)c1ccc(Oc2ccc(B(OCCNC)c3ccc(CO)cc3)cc2)cc1 [Example 391, (4-(phenyl-N-methylaminoethoxyboryl)phenyl)(4′-(hydroxymethylphenyl-N-methylaminoethoxyboryl)phenyl)ether] | 0.32 | 0.32 | – | – | –
6 | 41 | 41 | 1500 | 1500 | – | – | – | – | – | – | NC(=O)CCC(N)C(=O)OB(c1ccccc1)c1ccc(Oc2ccc(B(OC(=O)C(N)CCC(N)=O)c3ccc(CO)cc3)cc2)cc1 (stereo not shown) [Example 394, (4-(phenyl-glutamineboryl)phenyl)(4′-(hydroxymethylphenyl-glutamineboryl)phenyl)ether] | 0.44 | 0.44 | – | – | –
7 | 3 | 3 | – | – | 1200 | – | – | – | – | – | NCCNCCOB(c1ccccc1)c1ccc(Oc2ccc(B(OCCNCCN)c3ccccc3)cc2)cc1 [Example 396, bis(4,4′-(phenyl-N-aminoethyl-aminoethoxyboryl)phenyl)ether] | 0.58 | 0.58 | – | – | –
8 | 105 | – | 4000 | – | – | – | 105 | 4000 | – | – | NC(=O)CC(N)C(=O)OB(c1ccccc1)c1cccc(COCc2cccc(B(OC(=O)C(N)CC(N)=O)c3ccccc3)c2)c1 (stereo not shown) [Example 404, bis(3,3′-(phenyl-asparagineboryl)benzyl)ether] | – | 1.07 | – | 1.07 | –
9 | 29 | – | – | – | 1500 | – | – | – | 29 | – | NCCCCC(N)C(=O)OB(c1ccccc1)c1ccc(COCc2ccc(B(OC(=O)C(N)CCCCN)c3ccccc3)cc2)cc1 (stereo not shown) [Example 409, bis(4,4′-(phenyl-lysineboryl)benzyl)ether] | – | 0.86 | – | – | 0.86
10 | 130 | – | – | – | 2000 | – | – | – | – | – | COc1ccc(B(O)c2ccc(COCc3ccc(B(O)c4ccc(OC)cc4)cc3)cc2)cc1 [Example 410, bis(4,4′-(p-methoxy-phenyl-hydroxyboryl)benzyl)ether] | – | 0.90 | – | – | –
11 | 65 | – | – | – | 2000 | – | – | – | 65 | – | COc1ccc(B(OCCN)c2ccc(COCc3ccc(B(OCCN)c4ccc(OC)cc4)cc3)cc2)cc1 [Example 412, bis(4,4′-(p-methoxyphenyl-aminoethoxyboryl)benzyl)ether] | – | 0.89 | – | – | 0.89
12 | 28 | – | – | – | 800 | – | – | – | 28 | – | CNCCOB(c1ccc(COCc2ccc(B(OCCNC)c3ccc(OC)cc3)cc2)cc1)c1ccc(OC)cc1 [Example 413, bis(4,4′-(p-methoxyphenyl-N-methylaminoethoxyboryl)benzyl)ether] | – | 0.81 | – | – | 0.81
13 | −3 | – | – | – | 1200 | – | – | – | −3 | – | Cc1ccc(B(OCCN)c2ccc(COCc3ccc(B(OCCN)c4ccc(C)c(Cl)c4)cc3)cc2)cc1Cl [Example 420, bis(4,4′-(3-chloro-4-methylphenyl-aminoethoxyboryl)benzyl)ether] | – | 0.81 | – | – | 0.81
14 | −1 | – | – | – | 1200 | – | – | – | −1 | – | CNCCOB(c1ccc(COCc2ccc(B(OCCNC)c3ccc(C)c(Cl)c3)cc2)cc1)c1ccc(C)c(Cl)c1 [Example 421, bis(4,4′-(3-chloro-4-methylphenyl-N-methylaminoethoxyboryl)benzyl)ether] | 0.87 | 1.03 | – | – | 1.03
15 | 13 | – | – | – | 1200 | – | – | – | 13 | 700 | Cc1ccc(B(OCCN(C)C)c2ccc(COCc3ccc(B(OCCN(C)C)c4ccc(C)c(Cl)c4)cc3)cc2)cc1Cl [Example 422, bis(4,4′-(3-chloro-4-methylphenyl-N,N-dimethylaminoethoxyboryl)benzyl)ether] | 0.91 | 0.95 | – | – | 0.95
16 | 27 | – | – | – | 1200 | – | – | – | 27 | – | Cc1ccc(B(OCC2CCCCN2)c2ccc(COCc3ccc(B(OCC4CCCCN4)c4ccc(C)c(Cl)c4)cc3)cc2)cc1Cl (stereo not shown) [Example 423, bis(4,4′-(3-chloro-4-methylphenyl-2-piperidylmethoxyboryl)benzyl)ether] | – | 0.76 | – | – | 0.76
17 | 22 | – | – | – | 1200 | – | – | – | 22 | – | CN(C)CCOB(c1ccc(COCc2ccc(B(OCCN(C)C)c3ccc(C(F)(F)F)cc3)cc2)cc1)c1ccc(C(F)(F)F)cc1 [Example 424, bis(4,4′-(p-trifluoromethylphenyl-N,N-dimethylaminoethoxyboryl)benzyl)ether] | 0.69 | 1.03 | – | – | 1.03
18 | 130 | – | – | – | 500 | – | – | – | – | – | NC(=O)CC(N)C(=O)OB(c1ccc(COCc2ccc(B(OC(=O)C(N)CC(N)=O)c3ccc(C(F)(F)F)cc3)cc2)cc1)c1ccc(C(F)(F)F)cc1 (stereo not shown) [Example 425, bis(4,4′-(p-trifluoromethylphenyl-asparagineboryl)benzyl)ether] | – | 0.9 | – | – | –
19 | 19 | – | – | – | 1200 | – | – | – | 19 | – | NCCOB(c1ccc(COCc2ccc(B(OCCN)c3ccc(C(F)(F)F)cc3)cc2)cc1)c1ccc(C(F)(F)F)cc1 [Example 426, bis(4,4′-(p-trifluoromethylphenyl-aminoethoxyboryl)benzyl)ether] | – | 0.93 | – | – | 0.93
20 | 20 | – | – | – | 800 | – | – | – | 20 | – | CNCCOB(c1ccccc1)c1ccc(COc2ccc(B(OCCNC)c3ccccc3)cc2)cc1 [Example 427, (4-phenyl-N-methylaminoethoxyborylphenyl) (4′-phenyl-N-methylaminoethoxyborylbenzyl)ether] | 1.02 | 0.73 | – | – | 0.73
21 | 53 | – | – | – | 1500 | – | – | – | 53 | – | CN(C)CCOB(c1ccccc1)c1ccc(COc2ccc(B(OCCN(C)C)c3ccccc3)cc2)cc1 [Example 428, (4-phenyl-N,N-dimethylaminoethoxyborylphenyl) (4′-phenyl-N,N-dimethylaminoethoxyborylbenzyl)ether] | 0.98 | 0.82 | – | – | 0.82
